Reference: patent US9545411B2, “Methods and compositions for treating progesterone-dependent conditions” (REPROS THERAPEUTICS INC., priority 2012, dated 2017)

Assays:
[1] = test system: DMBA-induced breast tumors; assay: DMBA-induced breast tumor model, subcutaneous injection; type: in vivo, rodents
Protocol: Pre-clinical studies were performed on rodents with breast tumors induced by 7,12-Dimethylbenz(a)anthracene (DMBA).

[2] = Oral study, 1-12 mg CDB-4124 for 10 weeks; type: in vivo
Protocol: (§1) In an oral study, doses of 1, 3, 6, 9 and 12 mg of CDB-4124 were administered for a period of 10 weeks. […] Cessation of menses directly correlated to efficacy of an oral dose in both uterine fibroids and endometriosis.

[3] = Pharmacokinetic analysis of vaginal administration of 12 mg CDB-4124; type: in vivo, human
Protocol: as §1
Thus, the onset of amenorrhea is delayed when the drug is administered vaginally, necessitating that the drug be vaginally administered during subsequent menstruations, which tends to reduce absorption of the drug and is unpleasant and technically challenging for the patient. The methods of the present invention provide a solution to this problem by providing a brief period of oral administration, preceding and overlapping vaginal administration, which expedites the onset of amenorrhea while retaining the benefits of vaginal administration.

[4] = test system: progesterone-induced endometrial proliferation; assay: Anti-Clauberg study, subcutaneous versus oral; type: in vivo, rabbits
Description: FIG. 3 illustrates a comparison of the inhibition of progesterone-induced endometrial proliferation in estradiol-primed immature rabbits following subcutaneous injection and oral administration of CDB-4124.
To determine whether the low circulating levels of CDB-4124 when administered locally could have any impact predictive of efficacy, an anti-Clauberg study was run in which immature estradiol-primed rabbits were coadministered progesterone and various doses of CDB-4124 by either subcutaneous or oral administration. At least 3 different highly trained individuals evaluated the rabbit uterus for glandular growth, for complexity and overall progesterone-induced “development”. The inhibition (by percentage) of progesterone-induced endometrial proliferation at each dose was assayed. […] However, maximal inhibition required a ˜8-fold increase in dosage when administered orally (i.e. 8 mg/kg). Importantly 8 mg/kg corresponds closely to the 50 mg/day dose of CDB-4124 administered to the female subjects described in Example 3.

[5] = test system: progesterone-induced endometrial proliferation; assay: Anti-Clauberg study, vaginal versus oral (McPhail index); type: in vivo, rabbits
Protocol: FIG. 4 compares the antiprogestational effects of three doses of CDB-4124 when delivered orally versus when delivered to the vaginal mucosa of estradiol-primed immature rabbits in the presence of progesterone, as measured by a decrease in the McPhail index. Treatment with progesterone alone (vehicle control) provided a baseline measurement of progestational activity.
Another anti-Clauberg study was run in which immature estradiol-primed rabbits were administered progesterone alone (vehicle control) or were coadministered progesterone and three doses of CDB-4124 by either vaginal or oral administration. The inhibition of progesterone-induced endometrial proliferation at each dose was assayed. FIG. 3 illustrates the decrease in the McPhail index following increasing doses of CDB-4124 administered by either route. Maximal inhibition (i.e. a decrease in the McPhail index to 1.5) occurred at 0.2 mg/kg CDB-4124 when administered vaginally, compared to 0.8 mg/kg when administered orally.

[6] = Cmax after vaginal administration in beagles extrapolated to humans; type: in vivo; conditions: for predicted Cmax for vaginal administration as percentage of the same oral dose: humans, extrapolated from beagles
Protocol: FIG. 2 illustrates the actual Cmax observed for Proellex (CDB-4124) and its monodemethylated metabolite CDB-4453, following oral administration of CDB-4124 at 12.5 mg, 25 mg and 50 mg doses as well as the projected Cmax for 3 mg, 6 mg and 9 mg doses. FIG. 2 also illustrates the actual Cmax observed for Proellex (CDB-4124) and its monodemethylated metabolite CDB-4453, following vaginal administration of CDB-4124 at 12.5 mg, 25 mg and 50 mg doses.
The maximum circulating concentrations (Cmax) of CDB-4124 obtained following vaginal administration to beagles were extrapolated to humans for the 12.5 mg, 25 mg and 50 mg doses actually administered during the Phase III clinical studies.
For example, equivalent antiprogestational activity at the uterus is observed for a 50 mg oral dose of CDB-4124 and a 12.5 mg vaginal dose; however, the Cmax observed with a 12.5 mg vaginal dose is only 2% that observed with a 50 mg oral dose. […] Because a high concentration of the drug in the systemic circulation (and associated first pass metabolism of the drug) is not reached by local administration, avoidance of the severe liver toxicity observed in a small percentage of subjects following oral administration of CDB-4124 in previous Phase III clinical studies at doses of 25 and 50 mg is a surprising advantage of administering the drug locally. Similar advantages should inure to local administration of other antiprogestins.

[7] = test system: primary cultures of human and animal hepatocytes; assay: Metabolism in primary cultures of hepatocytes; type: in vitro ADME; conditions: primary hepatocyte cultures
[8] = test system: hypothalamic pituitary axis (HPA); assay: Low-dose oral CDB-4124: effect on ovulation; type: in vivo; conditions: about 3-25 mg
Description: Contemporaneous systemic and local administration of antiprogestins to treat hormonally responsive breast cancer (i.e. the breast tumor contains estrogen and/or progesterone receptor) has advantages as well.

[9] = Pharmacokinetic studies in clinical trial subjects after oral CDB-4124; type: in vivo, human; conditions: for maximum concentration for the 12.5 mg dose as percentage of the 50 mg dose: oral CDB-4124
Protocol: (§2) The maximum concentrations of CDB-4124 and its mono-demethylated metabolite (CDB-4453) for the 12.5 mg dose were 25% of the 50 mg dose. All liver toxicities resolved in those women that returned for safety follow-ups, including those subjects that developed liver-associated serious adverse effects (SAEs).
Pharmacokinetic studies performed on participating subjects detected a high Cmax and a Tmax at 1-2 hours following administration. Large quantities of the monodemethylated metabolite of CDB-4124 were also detected, clearly indicating first pass metabolism of the antiprogestin. […] Metabolism of CDB-4124 by the liver provides the opportunity for liver damage and greatly reduces the concentration of the antiprogestin before it reaches the systemic circulation. Thus, alternative routes of administration of antiprogestins that avoid first pass metabolism such as, without limitation, intravenous, intramuscular, and sublingual, should allow antiprogestins to be absorbed directly into the systemic circulation and thereby provide a method for treating progesterone-dependent conditions while avoiding liver toxicity. Administration routes which avoid first pass metabolism may also require less drug per dose to achieve the same therapeutic benefit relative to oral administration.

[10] = Oral versus vaginal pharmacokinetics in beagles (25 mg); type: in vivo; conditions: for metabolism after oral administration: oral micronized powder; for metabolism after vaginal administration / peak plasma concentration (Cmax): vaginal suppository
Protocol: FIG. 1 illustrates a comparison of the Cmax (peak serum concentration) and area under the curve (AUC) following oral and vaginal administration of CDB-4124 or CDB-4453 at a 25 mg dose in beagles.
Beagles were administered 25 mg of CDB-4124 or CDB-4453 (the monodemethylated metabolite of CDB-4124) formulated as either a micronized powder or a vaginal suppository.

[11] = Clinical trials of daily oral Proellex (CDB-4124): liver toxicity / liver enzymes; type: in vivo, human; conditions: for subjects with liver enzyme elevations reported as SAEs: of seven SAEs
Protocol: as §2
To date, over 600 patients, including women with confirmed cases of endometriosis or uterine fibroids, have participated in double blind and open label clinical trials in which patients were administered daily oral capsules containing doses of 12.5 mg, 25 mg or 50 mg CDB-4124 (Proellex) for over one month. Of these patients, about 500 received Proellex and about 130 received a placebo. Of the patients receiving Proellex, about 190 received a dose of 50 mg CDB-4124 per day, about 260 received a dose of 25 mg CDB-4124 per day and about 55 received a dose of 12.5 mg per day.
Liver enzymes were frequently monitored in participating subjects. The liver enzyme level at which the clinical trials would be discontinued was set at an increase in liver aminotransferases greater than, or equal to three times the Upper Limit of Normal (≧3×ULN).
Of the nine subjects with a confirmed increase in liver enzymes ≧3×ULN, seven were severe enough elevations to be reported to the FDA as SAEs. One of these seven subjects had been receiving a dose of 25 mg CDB-4124 per day; the remaining six subjects had been receiving a dose of 50 mg CDB-4124 per day. Liver enzymes ≧3×ULN persisted in five of the nine subjects with a confirmed increase in liver enzymes ≧3×ULN. These five subjects had previously been dosed with the 50 mg dose. One of these subjects is receiving oral medication for treatment of their liver condition. Clinical trials involving CDB-4124 at all doses were voluntarily suspended as a result of these SAEs and were subsequently placed on clinical hold by the United States Food and Drug Administration for safety reasons.

uterine fibroids = assay: Single blind study of vaginal CDB-4124 in females with uterine fibroids; type: in vivo, human; conditions: vaginal 12 mg daily
Protocol: Seven human females with uterine fibroids have completed 4 months of treatment as part of a single blind study. These females were vaginally administered a daily dose of 12 mg CDB-4124 for a period of four months, with dosing initiated during the luteal phase of the females' menstrual cycles. At the end of the four month treatment period, all seven females stopped menstruating and all reported a Pictural Blood Loss Assessment Chart (PBAC) score of 0 (p=0.002). A statistically significant and highly clinically meaningful reduction in Uterine Fibroid Symptom Quality of Life Survey (UFSQOL) scores was also observed. The mean UFSQOL score at baseline was 43.8 and at the end of the four month treatment period the mean score was 1.33 (p=0.001). […] As a reference, women with fibroids typically score 40 or higher, whereas women without fibroids report scores of approximately 20.
Change in fibroid volume at the end of the four month treatment period determined by magnetic resonance imagining (MRI) was assessed and a statistically significant (chi square analysis) median reduction of total fibroid volume of 36% was observed.

Compound: COCC(=O)[C@@]1(OC(C)=O)CC[C@H]2[C@@H]3CCC4=CC(=O)CCC4=C3[C@@H](c3ccc(N(C)C)cc3)C[C@@]21C [CDB-4124, 21-methoxy-17α-acetoxy-11β-(4 N, N-dimethylaminophenyl)-19-norpregna-4,9-diene-3,20-dione]
- effect on quantity and size of DMBA-induced breast tumors [1]: effective in reducing the quantity and size of DMBA-induced breast tumors
- lowest dose inducing reliable cessation of menses ([2]; oral): 3 mg
- tolerability ([2]; oral 1, 3, 6, 9 and 12 mg): well tolerated
- maximum exposure (Cmax) relative to a 50 mg oral dose ([3]; vaginal 12 mg): about 1/100
- systemic exposure (AUC) relative to an equivalent oral dose ([3]; vaginal 12 mg): about ⅙
- build-up of drug concentration, vaginal relative to oral ([3]; vaginal administration): build slowly
- dose giving maximal inhibition of progesterone-induced endometrial proliferation ([4]; oral): 8 mg/kg
- increase in dosage required for maximal inhibition, oral vs. subcutaneous ([4]; rabbit, in vivo): ~8 fold
- dose giving maximal inhibition of progesterone-induced endometrial proliferation ([4]; subcutaneous): less than 1 mg/kg
- McPhail index at maximal inhibition ([5]; 0.2 mg/kg vaginal or 0.8 mg/kg oral): 1.5
- dose giving maximal inhibition (decrease in McPhail index) ([5]; oral): 0.8 mg/kg
- antiprogestational activity of vaginal delivery relative to the same oral dose ([5]; rabbit, in vivo, po): four
- dose giving maximal inhibition (decrease in McPhail index) ([5]; vaginal): 0.2 mg/kg
- predicted Cmax for vaginal administration as percentage of the same oral dose ([6]; 12.5 mg dose): approximately 6.5%
- predicted Cmax for vaginal administration as percentage of the same oral dose ([6]; 50 mg dose): approximately 2%
- Cmax with a 12.5 mg vaginal dose as percentage of a 50 mg oral dose ([6]; in vivo, po): 2%
- formation of mono-demethylated metabolite [7]: rapidly produce the mono-demethylated metabolite
- suppression of ovulation [8]: partially but not completely suppress ovulation
- Tmax ([9]; following oral administration): 1 to 2 h
- maximum concentration for the 12.5 mg dose as percentage of the 50 mg dose [9]: 25%
- systemic exposure (AUC), vaginal vs. oral [10]: much lower when administered locally
- metabolism after oral administration [10]: rapidly metabolized
- metabolism after vaginal administration [10]: metabolized slowly
- peak plasma concentration (Cmax) [10]: relatively low
- adverse liver toxicity signals ([11]; 12.5 mg): no adverse liver toxicity signals different from placebo
- subjects with liver enzyme elevations reported as SAEs ([11]; 25 mg per day): One
- frequency and intensity of liver effects relative to 50 mg/day ([11]; 25 mg/day): significantly lower in frequency and intensity
- subjects in whom liver enzymes ≧3×ULN persisted ([11]; 50 mg dose, of nine confirmed): five
- subjects with liver enzyme elevations reported as SAEs ([11]; 50 mg per day): six
- women exhibiting severe liver toxicity ([11]; 50 mg/day): 3-4%
- subjects with confirmed increase in liver enzymes ≧3×ULN ([11]; all doses (12.5, 25, 50 mg/day), confirmed by repeat test in 48 hours): nine
- median reduction of total fibroid volume (MRI) (uterine fibroids; end of four months): 36%
- Pictural Blood Loss Assessment Chart (PBAC) score (uterine fibroids; end of four months, p=0.002): 0
- females who stopped menstruating (uterine fibroids; end of four months, seven females): seven
- mean Uterine Fibroid Symptom Quality of Life Survey (UFSQOL) score (uterine fibroids; end of four months, baseline 43.8, p=0.001): 1.33
- females no longer experiencing any fibroid related symptoms (uterine fibroids; four months, of seven): six

Compound: CNc1ccc([C@H]2C[C@@]3(C)[C@@H](CC[C@]3(OC(C)=O)C(=O)COC)[C@@H]3CCC4=CC(=O)CCC4=C32)cc1 [CDB-4453, 21-methoxy-17α-acetoxy-11β-(4-N-methylaminophenyl)-19-norpregna-4,9-diene-3,20-dione]
- maximum concentration for the 12.5 mg dose as percentage of the 50 mg dose [9]: 25%
- systemic exposure (AUC), vaginal vs. oral [10]: much lower when administered locally
- metabolism after oral administration [10]: rapidly metabolized
- metabolism after vaginal administration [10]: metabolized slowly
- peak plasma concentration (Cmax) [10]: relatively low
